The subject of data set [1] is fMLF/cytochalasin B (CB)-activated human neutrophils. As to the kind of experiment: Superoxide anion generation (ferricytochrome c reduction) in fMLF/CB-activated human neutrophils. In kind it is cell-based. The following applies: Neutrophil, fMLF/CB stimulation, mean ± SEM (n = 3–5); for inhibition at 10 µM: 10 μM compound. Here is the method: (§1) The study involving neutrophils was approved by the Institutional Review Board of Chang Gung Memorial Hospital under IRB number: 201902217A3 and was conducted in accordance with the principles of the Declaration of Helsinki. Healthy volunteers aged 20–35 years provided signed informed consents for blood collection. Isolation of neutrophils was done using dextran sedimentation, Ficoll-Hypaque density gradient centrifugation, and hypotonic haemolysis. For the anti-inflammatory studies, neutrophils were suspended in Hank’s balanced salt solution (HBSS) containing 1 mM Ca^2+ at a pH of 7.4[72].
The reduction of ferricytochrome c was utilised to measure the production of SO anions in activated human neutrophils. […] The neutrophils were then stimulated with fMLF (0.1 μM) and CB (1 μg/mL) for 13 min. […] LY294002 was used as a positive control.

For data set [2] the test system is unchanged. As to the kind of experiment: Elastase release in fMLF/CB-activated human neutrophils. The format is cell-based. The note with it: fMLF/CB stimulation, mean ± SEM (n = 3–5); for inhibition at 10 µM: 10 μM compound. As to the method: as §1
Neutrophils were subsequently stimulated with fMLF (0.1 μM) and CB (0.5 μg/mL) for 13 min. […] LY294002 was used as a positive control.

For a further data set, the system named is JNK. The data set is described as follows: Immunoblotting of JNK phosphorylation in fMLF-activated neutrophils. The note with it: 10 μM for 5 min, then fMLF 0.1 μM for 30 s. The format is cell-based, human. Here is the method:
(§2) Human neutrophils (2.5 × 10^7 cells/mL) were first subjected to DMSO (0.1%, serving as control) or experimental compounds at 37 °C for 5 min. Following this, cells were stimulated with fMLF (0.1 μM) for 30 s. […] Primary antibodies used included those for p38 (1:8000), phospho-p38 (1:3000), JNK (1:3000), phospho-JNK (1:3000), Akt (1:5000), phospho-Akt (Ser-473) (1:2000), ERK (1:8000), phospho-ERK (1:8000), and HRP-linked anti-rabbit IgG, to measure total and phosphorylated forms of MAPK and Akt proteins. The quantitative measurements for all samples were adjusted to correspond with the levels of the total protein present.
(In general: In western blotting, separated proteins are transferred to a membrane and probed.)

Another data set deals with ERK. As to the kind of experiment: Immunoblotting of ERK phosphorylation in fMLF-activated neutrophils. In kind it is cell-based, human. The note with it: 10 μM for 5 min, then fMLF 0.1 μM for 30 s. As to the method:
as §2

In the next data set the test system is p38 MAPK. The data set is described as follows: Immunoblotting of p38 MAPK phosphorylation in fMLF-activated neutrophils. The format is cell-based, human. The following applies: 10 μM for 5 min, then fMLF 0.1 μM for 30 s. Here is the method: as §2
For another data set, the system named is Akt. As to the kind of experiment: Immunoblotting of Akt phosphorylation in fMLF-activated neutrophils. The format is cell-based, human. The following applies: 10 μM for 5 min, then fMLF 0.1 μM for 30 s. Here is the method:
as §2

The source of these data is PMC11413964, “Discovery of 1,3-disubstituted prop-2-en-1-one derivatives as inhibitors of neutrophilic inflammation via modulation of MAPK and Akt pathways” (Journal of Enzyme Inhibition and Medicinal Chemistry, 2024).

What is called inhibition is the change of the read-out against control, counted positive when it falls. The IC50 is the midpoint of a concentration-inhibition curve. A lower IC50 goes with inhibition by little substance. A word on the melting point: it is the temperature, or range, at which the solid turns liquid.

As to `COc1cccc(C(=O)/C=C/c2ccc([N+](=O)[O-])cc2)c1` [Compound 6a, (E)-1-(3-Methoxyphenyl)-3-(4-nitrophenyl)prop-2-en-1-one], the melting point is 132.3 to 133.3 °C. In data set [1], this compound showed an inhibition at 10 µM of 99.69 ± 0.18% and a half-maximal inhibitory concentration (IC50) of 1230 ± 270 nM. In data set [2] (Homo sapiens, Neutrophil), this compound yielded an inhibition at 10 µM of 84.5 ± 5.73% and an IC50 of 1370 nM. Moreover, the IC50 in data set [2] is 2220 ± 120 nM. For the same compound, in the data set on JNK, the “Effect on JNK phosphorylation” value is given as “significantly suppressed phosphorylation”. The “Effect on ERK phosphorylation” value in the data set on ERK is on record as “did not alter the phosphorylation”. In addition, in the data set with p38 MAPK, the “Effect on p38 phosphorylation” value is given as “did not alter the phosphorylation”. In addition, the “Effect on Akt phosphorylation” value in the data set on Akt is given as “significantly suppressed phosphorylation”.

As to `COc1ccc(C(=O)/C=C/c2cc(F)cc(F)c2)cc1OC` [Compound 26a, (E)-3-(3,5-Difluorophenyl)-1-(3,4-dimethoxyphenyl)prop-2-en-1-one], the melting point is 132.8 to 134.8 °C. In data set [1], this compound had an inhibition at 10 µM of 92.4 ± 2.19% and an IC50 of 1560 ± 270 nM. Besides, at 10 µM the inhibition in data set [2] (Homo sapiens, Neutrophil) was 20.2 ± 3.19%. In the data set with JNK, the “Effect on JNK phosphorylation” value is given as “markedly diminished phosphorylation”. The “Effect on ERK phosphorylation” value with ERK is reported as “markedly diminished phosphorylation”. In addition, the “Effect on p38 phosphorylation” value in the data set with p38 MAPK is listed as “markedly diminished phosphorylation”. For the same compound, the “Effect on Akt phosphorylation” value in the data set on Akt is “did not affect”.
